# Laboratory results reported in PubChem BioAssay AID1117361 (Southern Research Institute, 2015).
# pIC50: −log10 of the molar value.
# Target: Protein Tat (Human immunodeficiency virus type 1 group M subtype B (isolate HXB2)) (UniProt P04608)
# Test: HIV-1 Tat–TAR interaction blockers – biochemical, fluorescence polarization, FAM-labeled TAR RNA, counter-screen for Vif-APOBEC3G degradation inhibitor project, dose response (AID 1117361)
# Details: Tat-TAR RNA binding
# Protein Tat (Human immunodeficiency virus type 1 group M subtype B (isolate HXB2)), sequence (P04608 whole entry, looked up): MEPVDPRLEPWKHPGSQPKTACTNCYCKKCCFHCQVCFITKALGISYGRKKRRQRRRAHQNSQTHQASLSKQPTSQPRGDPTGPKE
row,SMILES,pIC50
1,Cc1cc2c(c(=O)o1)C(c1ccc([N+](=O)[O-])o1)C(C#N)=C(N)O2 (stereo not drawn),5.00
2,COc1cccc(-n2c(Cc3cc(=O)[nH]c(=O)[nH]3)nnc2SCC(=O)NC2CCCC2)c1,4.99
3,COC(=O)C1=C(C)NC(=O)/C1=C\c1ccco1,4.40
4,Fc1ccccc1/C=C1\CCCC2=C1Nc1ncnn1C2c1ccccc1F (stereo not drawn),4.62
5,O=C(O)/C=C/C(=O)Nc1cccnc1,5.70
6,COc1cc(C(=O)NCC(c2ccco2)N2CCCC2)ccc1OCc1c(C)noc1C (stereo not drawn),4.03
7,CC1=C(C#N)C(=O)N(C2CCS(=O)(=O)C2)C(=O)/C1=C\c1ccco1 (stereo not drawn),5.54
8,O=C1CC(Nc2ccc(N3CCOCC3)cc2)C(=O)N1c1ccccc1F (stereo not drawn),4.89
9,COc1cc2c(cc1N)-c1ccc(N)cc1C2,5.60
10,CCCSC1=N/C(=C\c2ccc([N+](=O)[O-])o2)C(=O)S1,5.13
11,Cn1cccc1/C=C1\CCC/C(=C\c2cccn2C)C1=O,4.77
12,CNCc1ccccc1Sc1cc(O)ccc1O,4.76
13,CCN(CC)c1ccc(NC(=O)CCS(=O)(=O)c2ccc(Br)cc2)c(C)c1,4.33
14,O=C(O)c1cccc2cccc(-c3c4ccc(=O)c(O)c-4oc4c(O)c(O)ccc34)c12,5.47
15,CCOC(=O)c1cc2cc(F)ccc2nc1C,5.20
16,COC(C(=O)C(O)C(C)O)C1Cc2cc3cc(OC4CC(OC5CC(O)C(O)C(C)O5)C(O)C(C)O4)c(C)c(O)c3c(O)c2C(=O)C1OC1CC(OC2CC(OC3CC(O)C(OC)C(C)O3)C(O)C(C)O2)C(O)C(C)O1 (stereo not drawn),4.55
17,Cc1cc(/C=N/Nc2ccc([N+](=O)[O-])cn2)c(C)n1-c1ccc(C(=O)O)cc1,5.25
18,O=C(O)CC(C(=O)O)N1C(=O)/C(=C/C=C/c2ccco2)SC1=S (stereo not drawn),5.87
19,O=C(Nc1cccc(C(F)(F)F)c1)c1ccc2nc(-c3ccco3)c(-c3ccco3)nc2c1,5.22
20,O=C(NCCCO)Nc1ccc2nc(-c3ccco3)c(-c3ccco3)nc2c1,5.70
21,CCN1C(=O)/C(=C\c2ccc([N+](=O)[O-])s2)C(=O)NC1=S,5.39
22,Cc1ccc(/C=C/C(=O)Nc2ncc(C)s2)o1,4.80
23,CN(C)[C@@H]1C(=O)C(C(=O)NCN2CCCC2)=C(O)[C@@]2(O)C(=O)C3=C(O)c4c(O)cccc4[C@@](C)(O)C3CC12 (stereo partly drawn),5.61

row,SMILES,pIC50
1,CS(=O)(=O)c1ccc2c(c1)SC1=NC(=O)/C(=C/c3ccco3)C(=N)N12,4.98
2,CNc1ccc(Br)cc(C(=O)/C=C/c2cc(OC)ccc2OC)c1=O,5.01
3,Nc1cccc2cc(S(=O)(=O)O)ccc12,4.17
4,Cc1ccc(NC(=O)COc2ccc(/C=N/NC(=O)CSCc3ccccc3)cc2)cc1,4.79
5,O=C(O)C1Nc2c(O)cccc2C2C=CCC12 (stereo not drawn),6.15
6,O=C1CCCC(O)=C1N=Nc1cccc(C(=O)O)c1,4.86
7,CN1C(=O)/C(=C/c2cccn2-c2ccc3ccccc3c2)C(=O)NC1=S,4.35
8,CN1C(=O)/C(=C/C=C/c2ccco2)C(=O)NC1=S,4.95
9,CCCCn1c(O)c(C(CC)=NCCN2CCCCC2)c(=O)[nH]c1=O,4.49
10,CC(C)(C)NC(=O)C(c1ccncc1)N(C(=O)CNC(=O)c1ccco1)c1ccc2c(c1)OCO2 (stereo not drawn),4.36
11,O=C(CN1CCN(S(=O)(=O)c2ccc(Cl)s2)CC1)NCc1ccc(Cl)cc1,4.63
12,CC(C)N1C(=O)CC(Nc2ccc(N3CCOCC3)cc2)C1=O (stereo not drawn),4.80
13,CCc1c(C)sc(NC(=O)OC)c1C(=O)N1CCCCC1,4.52
14,Cc1ccccc1NC(=O)CSc1nnc(-c2ccco2)c(-c2ccco2)n1,5.56
15,CC1CCC/C(=C\Nc2ccc(C(=O)O)c(O)c2)C1=O (stereo not drawn),5.27
16,COc1ccc(NC(=O)CN(C)C(=O)c2cc(-c3ccco3)nc3ccccc23)cc1,4.33
17,CC(=O)c1sc(C(=O)O)c(-c2ccco2)c1-c1ccco1,5.31
18,CCCOc1ccc(N)cc1N,4.23
19,COc1cccc(C2CC(c3ccccc3OC)n3nc(N)nc3N2)c1 (stereo not drawn),6.16
20,Oc1ccc(NCc2cccc(OCc3ccc(F)cc3)c2)cc1,4.16
21,O=CN/C=C/c1cc(O)ccc1O,4.96
22,CN1CCc2cccc3c2[C@H]1Cc1ccc(O)c(O)c1-3,4.72
23,O=C(N/N=C/c1ccc(O)c(O)c1O)/C(=C/c1ccc([N+](=O)[O-])cc1)NC(=O)c1ccccc1,5.14

row,SMILES,pIC50
1,Cc1nc2c(=O)[nH]c(=S)[nH]c2[nH]c1=O,4.88
2,O=C(NCCO)Nc1ccc2nc(-c3ccco3)c(-c3ccco3)nc2c1,5.76
3,O=C(N/N=C/C=C/c1ccco1)c1ccncc1,4.99
4,NS(=O)(=O)c1ccc(N/N=C/c2ccc(O)c(O)c2O)c([N+](=O)[O-])c1,5.13
5,CN1C(=O)/C(=C/c2ccco2)SC1=Nc1cccc(C(=O)O)c1,5.10
6,Cc1ccc(C(=O)C2=C(O)C(=O)N(c3ncccn3)C2c2ccc(F)cc2)o1 (stereo not drawn),4.08
7,O=C(O)CC(C(=O)O)N1C(=O)/C(=C/c2ccc(-c3nc4ccccc4s3)o2)SC1=S (stereo not drawn),4.95
8,Cc1nn(-c2ccccc2)c2sc(C(=O)N3CCc4ccccc4C3)cc12,4.40
9,O=C1CCC/C(=N\NC(=O)c2ccc(COc3cccc4cccnc34)cc2)C1,4.08
10,NC(=O)c1cc(N)ccc1N1CCCC1,5.66
11,COc1cc(OC)c2c(c1O)OC(c1ccccc1)CC2=O (stereo not drawn),4.18
12,C=CCn1c(C)cc(-c2csc(N)n2)c1C,5.26
13,O=C(O)c1ccc(-n2cccc2/C=C2/NC(=O)N(c3cccc(Cl)c3)C2=O)cc1,5.11
14,COc1ccc(/C=C(\NC(=O)c2ccc(OCC(C)C)cc2)C(=O)OCc2ccco2)cc1,4.21
15,CN1CCc2cccc3c2[C@@H]1Cc1ccc(O)c(O)c1-3,5.04
16,O=C1NC(=O)N(Cc2ccco2)C(=O)/C1=C/C=C/c1ccco1,5.71
17,O=C1CC(=O)N(Cc2ccco2)C(=S)N1,5.81
18,N=C1S/C(=C\c2ccco2)C(=O)N1c1ccc2c(c1)OCO2,4.74
19,CCOC(=O)N1CC=C2C(C#N)=C(N)C(C#N)(C#N)[C@H](c3cccs3)[C@H]2C1,4.82
20,NC(=O)c1c(NC(=O)c2ccc(S(=O)(=O)N3CCOCC3)cc2)sc2c1CCCCC2,4.23
21,Cc1cccc(NC(=O)CNC(=O)c2cccc(-n3cccc3)c2)c1C,4.20
22,CN(C)c1ccc(N2C(=O)CC(Nc3ccc(N4CCOCC4)cc3)C2=O)cc1 (stereo not drawn),5.00
23,O=C(Cc1csc(N2CCOCC2)n1)N/N=C/c1ccc(O)c(O)c1O,4.78

row,SMILES,pIC50
1,O=C(CSc1nc2ccccc2n1CCc1ccccc1)c1ccc(O)c(O)c1,5.05
2,COc1cc(NC(=O)CS(=O)(=O)c2ccc(C)cc2)cc(OC)c1OC,5.85
3,CCOc1ccc(-n2c(Cc3cc(=O)[nH]c(=O)[nH]3)nnc2SC(C)C(=O)OC)cc1 (stereo not drawn),4.03
4,Cc1ccc(C)n1-c1cccc(C(=O)O)c1,5.68
5,COc1ccc(Nc2ccc(OC)cc2)cc1,4.64
6,Cc1cc(C)cc(Nc2ncc3c(n2)CC(c2ccco2)CC3=O)c1 (stereo not drawn),4.37
7,O=C(Cc1ccccc1)NC(Nc1ccccc1)C(Cl)(Cl)Cl (stereo not drawn),4.06
8,CC(C)OC(=O)c1cccc(C(=O)O)n1,5.72
9,O=C(Nc1nnc(C2CCCO2)s1)c1cccs1 (stereo not drawn),4.01
10,O=c1c(-c2cc3ccccc3o2)[n+]([O-])c2ccccc2n1OCc1ccccn1,4.46
11,O=C(Nc1ccc2nc(-c3ccco3)c(-c3ccco3)nc2c1)N1CCCCCC1,5.45
12,O/C=c1\ccc2cccc3nc(C(F)(F)F)nc1c23,5.54
13,O=C1NC(=S)SC1=C1CCCC1,5.18
14,O=C(Nc1ccccc1F)c1coc(=O)c(Br)c1,4.82
15,Cc1ccc(/C=c2\sc3nc(-c4cccs4)nn3c2=O)o1,4.87
16,COC(=O)CCCC(=O)Nc1c(F)c(F)c(F)c(F)c1F,4.11
17,CC(C)c1ccc(/C=C/C(=O)N2CCc3ccccc3C2)cc1,4.47
18,Oc1ccc(NCc2ccccc2OCc2ccccc2)cc1,4.29
19,CN(CC(=O)Nc1cccc(F)c1)C(=O)c1cccc(-n2cccc2)c1,4.39
20,COc1ccc2[nH]c3c4c(ccc3c2c1)C(=O)C=CC4=O,4.61
21,COc1ccc2ccccc2c1C1CC(=O)N2CN(Cc3ccco3)CSC2=C1C#N (stereo not drawn),4.17
22,CCOc1ccc(NCC2CCOC(C)(C)C2)cc1 (stereo not drawn),4.19
23,O=C(Cc1cc(=O)[nH][nH]1)N/N=C/C=C/c1ccccc1,4.37

row,SMILES,pIC50
1,COC(=O)C1=COC(C)C2CN3CCc4c([nH]c5ccccc45)C3CC12 (stereo not drawn),5.12
2,COc1cc(OC)c2c(O)c3c(c(-c4c5c(c(O)c6c(OC)cc(OC)cc46)CO[C@@H](C)[C@H]5O)c2c1)[C@H](O)[C@H](C)OC3,4.51
3,C=CC(=O)N1C/C(=C/c2ccc(F)cc2)C(=O)/C(=C\c2ccc(F)cc2)C1,4.05
4,Cc1ccccc1NC(=O)c1c(C)[nH]c(=S)c(C#N)c1-c1ccco1,5.05
5,CCOC(=O)C1CCN(C(c2cccs2)c2sc3nc(C)nn3c2O)CC1 (stereo not drawn),5.71
6,COC(=O)CCC(=O)OC1(C)C(=O)C2=CN(CCCOC(C)C)C(c3ccc(OC)cc3)=CC2=C(Br)C1=O (stereo not drawn),4.72
7,CN1CCN(C2=C(Cl)C(=O)C(c3cnc(N4CCCCC4)s3)=C(Cl)C2=O)CC1,5.17
8,C[n+]1cccc2cccc([O-])c21,4.86
9,CC1(C)CCCN(C(=O)c2coc(=O)c(Br)c2)C1,5.11
10,COC/C=C/C1=CC2=CC(=O)C(C)(OC(=O)C3CCCC3)C(=O)C2=CO1 (stereo not drawn),4.98
11,O=C(Nc1ccc(Br)cn1)c1coc(=O)c(Br)c1,4.10
12,O=C1C2C3CCCC3=C3CCCC3C2C(=O)N1c1ccccc1 (stereo not drawn),5.08
13,C=C(C)C(=O)Nc1cccc(C2=NOC3(C2)C[C@@H](C(N)=O)N(C(=O)c2cc([N+](=O)[O-])cc([N+](=O)[O-])c2)C3)c1 (stereo partly drawn),4.28
14,O=C(CCCCCN1C(=O)CCC1=O)Nc1ccc(Cl)c(C(F)(F)F)c1,4.79
15,O=C1/C(=C/c2ccco2)SC(=S)N1C1CCS(=O)(=O)C1 (stereo not drawn),5.30
16,CCOc1cccc(=O)c2c(C)oc(C)c12,4.65
17,CCNC(=O)COC(=O)c1cc(-c2ccco2)nc2ccccc12,5.09
18,O=C(NC1CCC(C(=O)O)CC1)OCc1ccccc1 (stereo not drawn),4.10
19,CC(C)(CS(=O)(=O)[O-])NC(=O)CC[N+](C)(C)CCO,4.76
20,CC(C)N1CCC2(CC1)C(C#N)=C(N)NC(S)=C2C#N,4.32
21,O=C(NC(=S)Nc1cccc(S(=O)(=O)NC2=NCCC2)c1)c1cc(-c2ccco2)nc2ccccc12,5.09
